Experimental data from patent US20240009175A9, “TETRAZOLE DERIVATIVES” (Merck Patent GmbH, priority 2020, published 2024).

Experiments:
human rec ACSS2 = human rec ACSS2 (Homo sapiens (Human), UniProt Q9NR19); experiment: Biochemical activity ACSS2 assay (AMP-Glo); details: human recombinant ACSS2, AMP-Glo, 180 min at 37° C.
Source text: Biochemical Activity ACSS2 Assay (IC50 ACSS2 Biochemical)
The biochemical activity assay for ACSS2 is based on the detection of released AMP by AMP-Glo™ Assay kit (Promega, Madison). The assay is run in three steps: the enzymatic reaction in which human rec ACSS2 activates acetate with ATP and Coenzyme A as cosubstrates to acetyl-CoA thereby releasing AMP and the detection reaction of AMP by AMP Glo assay in which after the destruction of the residual ATP with AMP Glo reagent 1 produced AMP is converted to ATP that is measured in a luciferase assay system (detection reagent). The ACSS2 activity correlates with the detected luminescence signal.
The assay was performed in Perkin Elmer 384 well white Proxiplates in a total volume of 8 μl.
1 nM (fc)C-term myc tagged ACSS2 (human, recombinant, Origene, Rockville, US) and a mixture of 100 μM (fc) ATP, 100 μM (fc) Coenzyme A and 500 μM (fc) sodium acetate were incubated in a total volume of 5 μl (50 mM Hepes, 1 mM Mg-chloride, 150 mM NaCl, 1 mM DTT, 0.01% (w/v) BSA, 0.3% DMSO, pH 7.5) in the absence or presence of the test compound (10 dilution concentrations, start conc 30 μM) for 180 min at 37° C. The reaction was stopped and residual ATP destroyed by the addition of 1 μl AMP Glo reagent solution (Promega, Madison, US). After 1h incubation at room temperature 2 μl of AMP Glo detection reagent was added and the assay was incubated for 0.75 hr at room temperature. The luminescence signal was measured with an Envision multimode reader (Perkin Elmer LAS Germany GmbH) at 700 nm in luminescence mode. The full value used was the inhibitor-free reaction. The pharmacological zero value was generated by addition of ACSS2 inhibitor (Ac-CoA Synthase Inhibitor—CAS 508186-14-9-Calbiochem) in a final concentration of 5 μM. The inhibitory values (IC50) were determined using the program Assay Analyzer® from GeneData.

CHO-K1 cells = experiment: Micronucleus assay (MNT) in vitro; format: cell-based; parameters: key: A: negative, putative negative (micronuclei detected beyond threshold of 60% cyctotoxicity); B: positive; details: 24 hrs treatment, 0.2 μM to 100 μM
Procedure: The in vitro MNT assay is performed in CHO-K1 cells due to their stable and well-characterized karyotype, high sensitivity and suitability for a high content imaging approach. They have a basal spontaneous micronucleus frequency of 3-4%.
24 hrs after plating CHO-K1 cells are treated with test compounds for 24 hrs (in duplicates; fixed concentration ranges from 0.2 μM to 100 μM in 2-fold dilution steps). After a medium change cells are incubated for 24 hrs with Cytochalasin B to block cytokinesis and are then fixed and nuclei/micronuclei visualized with a DNA stain. Images are acquired with the Molecular Devices high content imagers IXU or IXM and are analyzed with the dedicated MetaXpress software micronucleus module. Criteria for scoring of micronuclei (MN) are the following: • diameter of the MN should be less than ⅓ of the main nucleus • MN should be separated from or marginally overlap with main nucleus (=no blebs) • MN should have similar staining as the main nucleus
At least 1000 binucleated cells are evaluated per treatment replicate. Mitomycin C is used as reference stimulator of micronucleus formation. Cytotoxicity is evaluated in parallel and defined by comparing total nuclei count in compound-treated samples to neutral control samples treated with vehicle only (1% DMSO) (100% cytotoxicity means all cells are dead or lost).
A test compound is regarded as POSITIVE if generation of micronuclei and exhibition of less than 60% cytotoxicity at the same concentration can be observed.
Compounds are scored only in the soluble concentration range.
Experimental data of the compounds shown in Table 1 in the MNT assay are shown in Table 2 below and classified in the following groups: […]

ACSS2 = ACSS2 (Homo sapiens (Human), UniProt Q9NR19); experiment: Cellular assay of 14C acetate incorporation into histones (IC50 ACSS2 cellular histone); format: cell-based; details: HCT-15 cells
ACSS2, sequence (Q9NR19 whole entry): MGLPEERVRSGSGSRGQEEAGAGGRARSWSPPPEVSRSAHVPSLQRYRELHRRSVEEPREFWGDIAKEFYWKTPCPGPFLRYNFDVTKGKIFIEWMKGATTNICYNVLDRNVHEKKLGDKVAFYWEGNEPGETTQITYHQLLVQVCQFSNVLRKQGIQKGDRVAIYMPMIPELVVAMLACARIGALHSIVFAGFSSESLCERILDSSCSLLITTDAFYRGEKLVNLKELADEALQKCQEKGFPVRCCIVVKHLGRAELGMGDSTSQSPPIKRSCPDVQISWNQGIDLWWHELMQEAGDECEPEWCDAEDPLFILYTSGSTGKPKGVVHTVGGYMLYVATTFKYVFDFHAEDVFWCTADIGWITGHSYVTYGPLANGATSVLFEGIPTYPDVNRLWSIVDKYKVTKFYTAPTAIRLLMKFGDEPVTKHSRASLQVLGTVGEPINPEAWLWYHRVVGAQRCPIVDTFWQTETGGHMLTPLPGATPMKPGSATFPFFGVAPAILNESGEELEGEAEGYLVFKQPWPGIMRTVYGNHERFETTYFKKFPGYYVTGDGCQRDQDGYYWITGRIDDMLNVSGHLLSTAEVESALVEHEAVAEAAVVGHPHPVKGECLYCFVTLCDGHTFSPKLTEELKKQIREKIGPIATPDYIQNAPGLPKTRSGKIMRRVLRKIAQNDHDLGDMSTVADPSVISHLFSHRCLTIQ
Source text: Cellular Assay of ^14C Acetate Incorporation into Histones (IC50 ACSS2 Cellular Histone)
This protocol describes a cellular assay capable to quantify endogenous histone acetylation activity in the human HCT-15 cancer cell line following the incorporation of extracellularly administered radiolabeled ^14C acetate with a scintillation based read out on acid extracted histones.
HCT-15 cells are trypsinized, washed and suspended in DMEM culture medium supplemented with penicillin/streptomycin (100 U/mL), sodium pyruvate (1 mM), and 10% FBS
Compounds serial dilutions are prepared in 96-well V-bottom microplate from 10 mM stock solutions in DMSO. From these dilutions 0.5 μl are transferred to a fresh plate including pure DMSO as negative control. The dilutions are prepared such, that the final concentration in the assay is 1/400 of the concentration in the serial dilution. The final DMSO concentration in the assay is 0.25%.
The cell suspension is seeded at densities of 2×10^5 cells per 170 μl into individual wells of a 96 well plate each containing 0.5 μl aliquots of compound serial dilutions and are kept for 1 h in a cell incubator. To each well 30 μL of a mixture containing 0.5 mCi/mL of ^14C-acetate with full medium are added. Then, the wells are incubated for 3 hrs in the cell incubator.
Further steps of the procedure should be conducted on ice or instrumentations precooled to 4° C. Cells are sedimented in the 96-well V-bottom microplate by centrifugation (Eppendorf 5804 R) at 1200 rpm for 5 min. The supernatant is removed and the cells are washed twice with 200 μL of PBS-NaB (5 mM sodium butyrate) buffer by iterative resuspension and centrifugation. Finally, the cells are resuspended in 50 μL of TEB (PBS-NaB+0.5% Triton X-100) and left on ice for 10 minutes. After centrifugation at 2300 rpm for 10 minutes at 4° C. the supernatant is removed, the remaining pellet is suspended in 50 μL of 0.2M HCl and incubated over night at 4° C. After incubation the well plate is shaken for 2 minutes in a MTP plate shaker set to 1200 rpm and then centrifuged at 3700 rpm for 10 mins. The lysate is carefully aspirated (˜43 μL) and transferred into a white MTP plate (Greiner bio-one 65509). 90 μL of Ultima Gold XR scintillation cocktail are added and the plates are sealed with a transparent cover tape before mixing vigorously using plate shaker set to 1200 rpm. Radioactivity from ^14C incorporation in the wells is measured as CPM count in a MicroBeta Trilux luminescence counter.

human rec ACSS2, sequence (Q9NR19 whole entry): as above

SMILES: Cc1nc2nc(C(O)(c3ccccc3F)c3ccccc3F)n(C)c2cc1-c1nnn[nH]1 [Compound 55, [1,5-dimethy-6-(1H-1,2,3,4-tetrazol-5-yl)-1H-imidazo[4,5-b]pyridin-2-yl]bis(2-fluorophenyl)methanol]
- IC50 (human rec ACSS2): 0.01 to 1 nM
- MNT (CHO-K1 cells): A
- IC50 (ACSS2): 10 to 100 nM

SMILES: CCn1c(C(O)(c2ccccc2)c2ccsc2)nc2nc(OC)c(-c3nnn[nH]3)cc21 (racemic) [Compound 30, [1-ethyl-5-methoxy-6-(1H-1,2,3,4-tetrazol-5-yl)-1H-imidazo[4,5-b]pyridin-2-yl](phenyl)(thiophen-3-yl)methanol]
- IC50 (human rec ACSS2): 1 to 10 nM
- MNT (CHO-K1 cells): A
- IC50 (ACSS2): 10 to 100 nM

SMILES: CCn1c(C(O)(c2ccccc2)c2ccccc2C)nc2nc(OC)c(-c3nnn[nH]3)cc21 (racemic) [Compound 42, [1-ethyl-5-methoxy-6-(1H-1,2,3,4-tetrazol-5-yl)-1H-imidazo[4,5-b]pyridin-2-yl](2-methylphenyl)phenylmethanol]
- IC50 (human rec ACSS2): 1 to 10 nM
- MNT (CHO-K1 cells): A
- IC50 (ACSS2): 1 to 10 nM

SMILES: CCc1c(C(O)(c2ccccc2)c2ccccn2)nc2cc(Cl)c(-c3nnn[nH]3)cn12 (single isomer, unassigned) [Compound 8, [7-chloro-3-ethyl-6-(1H-tetrazol-5-yl)imidazo[1,2-a]pyridin-2-yl]-phenyl-(2-pyridyl)methanol]
- IC50 (human rec ACSS2): 1 to 10 nM
- MNT (CHO-K1 cells): A
- IC50 (ACSS2): 100 to 10000 nM

SMILES: CCc1c(C(O)(c2ccccc2)c2ccccc2)nn2cc(F)c(-c3nnn[nH]3)cc12 [Compound 23, [3-Ethyl-6-fluoro-5-(1H-tetrazol-5-yl)-pyrazolo[1,5-a]pyridin-2-yl]-diphenyl-methanol]
- IC50 (human rec ACSS2): 10 to 100 nM
- MNT (CHO-K1 cells): A
- IC50 (ACSS2): 10 to 100 nM

SMILES: CCn1c(C(O)(c2ccccc2F)c2ccccc2F)nc2ncc(-c3nnn[nH]3)cc21 [Compound 61, [1-ethyl-6-(1H-1,2,3,4-tetrazol-5-yl)-1H-imidazo[4,5-b]pyridin-2-yl]bis(2-fluorophenyl)methanol]
- IC50 (human rec ACSS2): 10 to 100 nM
- MNT (CHO-K1 cells): A
- IC50 (ACSS2): 100 to 10000 nM

SMILES: CCn1c(C(O)(c2ccc(OC(F)F)cc2)c2ccccc2F)nc2nc(OC)c(-c3nnn[nH]3)cc21 (racemic) [Compound 52, [4-(difluoromethoxy)phenyl][1-ethyl-5-methoxy-6-(1H-1,2,3,4-tetrazol-5-yl)-1H-imidazo[4,5-b]pyridin-2-yl](2-fluorophenyl)methanol]
- IC50 (human rec ACSS2): 1 to 10 nM
- MNT (CHO-K1 cells): A
- IC50 (ACSS2): 1 to 10 nM

SMILES: CCn1c(C(O)(c2ccccc2)c2cccnn2)nc2nc(OC)c(-c3nnn[nH]3)cc21 (stereo not drawn) [Compound 27, [1-ethyl-5-methoxy-6-(1H-1,2,3,4-tetrazol-5-yl)-1H-imidazo[4,5-b]pyridin-2-yl](phenyl)(pyridazin-3-yl)methanol]
- IC50 (human rec ACSS2): 1 to 10 nM
- MNT (CHO-K1 cells): A
- IC50 (ACSS2): 1 to 10 nM

SMILES: CCn1c(C(O)(c2ccsc2)c2ccsc2)nc2nc(OC)c(-c3nnn[nH]3)cc21 [Compound 29, [1-ethyl-5-methoxy-6-(1H-1,2,3,4-tetrazol-5-yl)-1H-imidazo[4,5-b]pyridin-2-yl]bis(thiophen-3-yl)methanol]
- IC50 (human rec ACSS2): 1 to 10 nM
- MNT (CHO-K1 cells): A
- IC50 (ACSS2): 10 to 100 nM

SMILES: CCn1c(C(O)(c2ccccc2)c2cnn(C)c2)nc2nc(OC)c(-c3nnn[nH]3)cc21 (racemic) [Compound 36, [1-ethyl-5-methoxy-6-(1H-1,2,3,4-tetrazol-5-yl)-1H-imidazo[4,5-b]pyridin-2-yl](1-methyl-1H-pyrazol-4-yl)phenylmethanol]
- IC50 (human rec ACSS2): 10 to 100 nM
- MNT (CHO-K1 cells): A
- IC50 (ACSS2): 100 to 10000 nM

SMILES: CCc1c(C(O)(c2ccccc2)c2ccccn2)nc2cc(OC)c(-c3nnn[nH]3)cn12 (single isomer, unassigned) [Compound 10, [3-Ethyl-7-methoxy-6-(1H-tetrazol-5-yl)-imidazo[1,2-a]pyridin-2-yl]-phenyl-pyridin-2-yl-methanol]
- IC50 (human rec ACSS2): 10 to 100 nM
- MNT (CHO-K1 cells): A
- IC50 (ACSS2): 100 to 10000 nM

SMILES: CCc1c(C(O)(c2ccccc2F)c2ccccc2F)nn2cc(Cl)c(-c3nnn[nH]3)cc12 [Compound 20, [6-Chloro-3-ethyl-5-(1H-tetrazol-5-yl)-pyrazolo[1,5-a]pyridin-2-yl]-bis-(2-fluoro-phenyl)-methanol]
- IC50 (human rec ACSS2): 1 to 10 nM
- MNT (CHO-K1 cells): A
- IC50 (ACSS2): 10 to 100 nM

SMILES: CCn1c(C(O)(c2ccccc2F)c2ccccc2F)nc2nc(F)c(-c3nnn[nH]3)cc21 [Compound 46, [1-ethyl-5-fluoro-6-(1H-1,2,3,4-tetrazol-5-yl)-1H-imidazo[4,5-b]pyridin-2-yl]bis(2-fluorophenyl)methanol]
- IC50 (human rec ACSS2): 10 to 100 nM
- MNT (CHO-K1 cells): A
- IC50 (ACSS2): 10 to 100 nM

SMILES: CCn1c(C(O)(c2ccccc2)c2nccs2)nc2nc(OC)c(-c3nnn[nH]3)cc21 (single isomer, unassigned) [Compound 33, [1-ethyl-5-methoxy-6-(1H-1,2,3,4-tetrazol-5-yl)-1H-imidazo[4,5-b]pyridin-2-yl](phenyl)(1,3-thiazol-2-yl)methanol]
- IC50 (human rec ACSS2): 10 to 100 nM
- MNT (CHO-K1 cells): A
- IC50 (ACSS2): 10 to 100 nM

SMILES: CCn1c(C(O)(c2ccccn2)c2cccs2)nc2nc(OC)c(-c3nnn[nH]3)cc21 (racemic) [Compound 26, [1-ethyl-5-methoxy-6-(1H-1,2,3,4-tetrazol-5-yl)-1H-imidazo[4,5-b]pyridin-2-yl](pyridin-2-yl)(thiophen-2-yl)methanol]
- IC50 (human rec ACSS2): 10 to 100 nM
- MNT (CHO-K1 cells): A
- IC50 (ACSS2): 1 to 10 nM
